# Results as given in patent publication US20230081426A1, “COMPOUNDS AND METHODS FOR KRAS MODULATION AND INDICATIONS THEREFOR” (Plexxikon Inc., priority 2020, published 2023).
# Legend:
# [1] = biological target: T1, G12V-mutant human KRAS (amino acid residues 1-188) (Homo sapiens, UniProt P01116, G12V); experiment: KRAS Binding Competition Assay (AlphaScreen; biotinylated KRpep-2d analogue), G12V; settings: geometric mean, read-out: KRAS GMean IC50 (uM) MUTATION: G12V
# T1 construct: G12V-mutant human KRAS (amino acid residues 1-188) with FLAG tag was purified from E. coli; made in house; host or cells: E. coli
# [2] = biological target: T2, G12D-mutant human KRAS (amino acid residues 1-188) (Homo sapiens, UniProt P01116, G12D); experiment: KRAS Binding Disruption Assay (AlphaScreen; biotinylated KRpep-2d analogue or RAF1-RBD), G12D; settings: KRAS G12D; geometric mean; read-out: KRAS GMean IC50 (uM) MUTATION: G12D
# T2 construct: G12D or G12C-mutant human KRAS (amino acid residues 1-188) with FLAG tag; made in house; host or cells: E. coli
# Method in brief: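 Displacement format with mutant KRAS, biotinylated KRpep-2d analogue or RAF1-RBD (5-20 nM each) at pH 7.5 with 5 mM MgCl2.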
Compound,IC50 [1] [µM],IC50 [2] [µM]
"C[C@H]1CCCN1CCc1nc(N2C[C@H]3CC[C@@H](C2)N3)c2ccc(-c3cc(O)cc4ccccc34)c(F)c2n1 [P-0440, 4-(4-((1R,5S)-3,8-diazabicyclo[3.2.1]octan-3-yl)-8-fluoro-2-(2-((S)-2-methylpyrrolidin-1-yl)ethyl)quinazolin-7-yl)naphthalen-2-ol]",10 to 100,0.0001 to 10
"CN1CCN(CCNS(=O)(=O)N2[C@@H]3CC[C@H]2CN(c2nc(OCC45CCCN4CCC5)nc4c(F)c(-c5cc(O)cc6ccccc56)ccc24)C3)CC1 [P-0281, (1R,5S)-3-(8-fluoro-7-(3-hydroxynaphthalen-1-yl)-2-((tetrahydro-1H-pyrrolizin-7a(5H)-yl)methoxy)quinazolin-4-yl)-N-(2-(4-methylpiperazin-1-yl)ethyl)-3,8-diazabicyclo[3.2.1]octane-8-sulfonamide]",0.0001 to 10,0.0001 to 10
"CN1CCC[C@H]1COc1nc(N2[C@@H]3CC[C@H]2CNC3)c2ccc(-c3cc(CO)cc4ccccc34)cc2n1 [P-0304, (4-(4-((1R,5S)-3,8-diazabicyclo[3.2.1]octan-8-yl)-2-(((S)-1-methylpyrrolidin-2-yl)methoxy)quinazolin-7-yl)naphthalen-2-yl)methanol]",10 to 100,10 to 100
"CN1CCC[C@H]1COc1nc(N2[C@@H]3CC[C@H]2CN(C(=O)C(N)=O)C3)c2ccc(-c3cc(O)cc4ccccc34)cc2n1 [P-0217, 2-((1R,5S)-8-(7-(3-hydroxynaphthalen-1-yl)-2-(((S)-1-methylpyrrolidin-2-yl)methoxy)quinazolin-4-yl)-3,8-diazabicyclo[3.2.1]octan-3-yl)-2-oxoacetamide]",10 to 100,10 to 100
"CN1CCC[C@H]1COc1nc(N2C[C@H]3CC[C@@H](C2)N3)c2ccc(-c3cc([N+](=O)[O-])cc4ccccc34)cc2n1 [P-0339, 4-((1R,5S)-3,8-diazabicyclo[3.2.1]octan-3-yl)-2-(((S)-1-methylpyrrolidin-2-yl)methoxy)-7-(3-nitronaphthalen-1-yl)quinazoline]",10 to 100,10 to 100
"COc1ccc2c(-c3c(F)cc4c(N5C[C@H]6CC[C@@H](C5)N6)nc(OC[C@@H]5CCCN5C)nc4c3F)c[nH]c2c1 [P-0473, 4-((1R,5S)-3,8-diazabicyclo[3.2.1]octan-3-yl)-6,8-difluoro-7-(6-methoxy-1H-indol-3-yl)-2-(((S)-1-methylpyrrolidin-2-yl)methoxy)quinazoline]",100 to 1000,100 to 1000
"OCC1CCN(c2nc(N3C[C@H]4CC[C@@H](C3)N4)c3ccc(-c4cc(O)cc5ccccc45)c(F)c3n2)C1 (stereo partly drawn) [P-0634, 4-(4-((1R,5S)-3,8-diazabicyclo[3.2.1]octan-3-yl)-8-fluoro-2-(3-(hydroxymethyl)pyrrolidin-1-yl)quinazolin-7-yl)naphthalen-2-ol]",100 to 1000,0.0001 to 10
"CN1CCC[C@H]1COc1nc(N2C[C@H]3CC[C@@H](C2)N3)c2ccc(-c3c(O)cccc3F)cc2n1 [P-0165, 2-(4-((1R,5S)-3,8-diazabicyclo[3.2.1]octan-3-yl)-2-(((S)-1-methylpyrrolidin-2-yl)methoxy)quinazolin-7-yl)-3-fluorophenol]",10 to 100,10 to 100
"OCC1(COc2nc(N3C[C@H]4CC[C@@H](C3)N4)c3ccc(-c4cc(O)cc5ccccc45)c(F)c3n2)CCOCC1 [P-0612, 4-(4-((1R,5S)-3,8-diazabicyclo[3.2.1]octan-3-yl)-8-fluoro-2-((4-(hydroxymethyl)tetrahydro-2H-pyran-4-yl)methoxy)quinazolin-7-yl)naphthalen-2-ol]",10 to 100,0.0001 to 10
"Oc1cc(-c2ccc3c(N4C[C@H]5CC[C@@H](C4)N5)nc(OCC4CCC4O)nc3c2F)c2ccccc2c1 (stereo partly drawn) [P-0617, 4-(4-((1R,5S)-3,8-diazabicyclo[3.2.1]octan-3-yl)-8-fluoro-2-((2-hydroxycyclobutyl)methoxy)quinazolin-7-yl)naphthalen-2-ol]",10 to 100,0.0001 to 10
"Cc1ccc2[nH]ncc2c1-c1ccc2c(N3C[C@H]4CC[C@@H](C3)N4)nc(OCC34CCCN3CCC4)nc2c1F [P-0101, 4-((1R,5S)-3,8-diazabicyclo[3.2.1]octan-3-yl)-8-fluoro-7-(5-methyl-1H-indazol-4-yl)-2-((tetrahydro-1H-pyrrolizin-7a(5H)-yl)methoxy)quinazoline]",10 to 100,0.0001 to 10
"CN1CCC[C@H]1COc1nc(N2[C@@H]3CC[C@H]2CN(C(=O)NC2CCN(C4CCCCC4)C2)C3)c2ccc(-c3cc(O)cc4ccccc34)cc2n1 (stereo partly drawn) [P-0266, (1R,5S)-N-(1-cyclohexylpyrrolidin-3-yl)-8-(7-(3-hydroxynaphthalen-1-yl)-2-(((S)-1-methylpyrrolidin-2-yl)methoxy)quinazolin-4-yl)-3,8-diazabicyclo[3.2.1]octane-3-carboxamide]",10 to 100,10 to 100
"O=C(O)CCc1nc(N2[C@@H]3CC[C@H]2CNC3)c2ccc(-c3cc(O)cc4ccccc34)cc2n1 [P-0198, 3-(4-((1R,5S)-3,8-diazabicyclo[3.2.1]octan-8-yl)-7-(3-hydroxynaphthalen-1-yl)quinazolin-2-yl)propanoic acid]",10 to 100,0.0001 to 10
"CN1CCC[C@H]1COc1nc(N2C[C@H]3CC[C@@H](C2)N3)c2ccc(-c3ccc4oc(N)nc4c3)cc2n1 [P-0181, 5-(4-((1R,5S)-3,8-diazabicyclo[3.2.1]octan-3-yl)-2-(((S)-1-methylpyrrolidin-2-yl)methoxy)quinazolin-7-yl)benzo[d]oxazol-2-amine]",10 to 100,10 to 100
"CN(C)CCCS(=O)(=O)N1[C@@H]2CC[C@H]1CN(c1nc(OC[C@@H]3CCCN3C)nc3c(F)c(-c4cc(O)cc5ccccc45)ccc13)C2 [P-0380, 4-(4-((1R,5S)-8-((3-(dimethylamino)propyl)sulfonyl)-3,8-diazabicyclo[3.2.1]octan-3-yl)-8-fluoro-2-(((S)-1-methylpyrrolidin-2-yl)methoxy)quinazolin-7-yl)naphthalen-2-ol]",10 to 100,0.0001 to 10
"Fc1c(-c2c[nH]c3ccc(Cl)c(F)c23)c(Cl)cc2c(N3C[C@H]4CC[C@@H](C3)N4)nc(OCC34CCCN3CCC4)nc12 [P-0466, 4-((1R,5S)-3,8-diazabicyclo[3.2.1]octan-3-yl)-6-chloro-7-(5-chloro-4-fluoro-1H-indol-3-yl)-8-fluoro-2-((tetrahydro-1H-pyrrolizin-7a(5H)-yl)methoxy)quinazoline]",10 to 100,0.0001 to 10
"CN1CCC[C@H]1COc1nc(N2C[C@H]3CC[C@@H](C2)N3C(=O)CCCn2ccnc2)c2ccc(-c3cc(O)cc4ccccc34)c(F)c2n1 [P-0393, 1-((1R,5S)-3-(8-fluoro-7-(3-hydroxynaphthalen-1-yl)-2-(((S)-1-methylpyrrolidin-2-yl)methoxy)quinazolin-4-yl)-3,8-diazabicyclo[3.2.1]octan-8-yl)-4-(1H-imidazol-1-yl)butan-1-one]",0.0001 to 10,0.0001 to 10
"CN(C)c1ccc(/C=C/c2nc(N3[C@@H]4CC[C@H]3CNC4)c3ccc(-c4cc(O)cc5ccccc45)cc3n2)cc1 [P-0244, 4-(4-((1R,5S)-3,8-diazabicyclo[3.2.1]octan-8-yl)-2-((E)-4-(dimethylamino)styryl)quinazolin-7-yl)naphthalen-2-ol]",10 to 100,10 to 100
"O=C(N[C@@H]1C[C@H]2CC[C@@H]1O2)N1[C@@H]2CC[C@H]1CN(c1nc(OCC34CCCN3CCC4)nc3cc(-c4cc(O)cc5ccccc45)ccc13)C2 [P-0140, (1R,5S)-N-((1S,2R,4R)-7-oxabicyclo[2.2.1]heptan-2-yl)-3-(7-(3-hydroxynaphthalen-1-yl)-2-((tetrahydro-1H-pyrrolizin-7a(5H)-yl)methoxy)quinazolin-4-yl)-3,8-diazabicyclo[3.2.1]octane-8-carboxamide]",0.0001 to 10,0.0001 to 10
"CN1CCC[C@H]1COc1nc(N2C[C@H]3CC[C@@H](C2)N3CC(=O)N2CCOCC2)c2ccc(-c3cc(O)cc4ccccc34)c(F)c2n1 [P-0428, 2-((1R,5S)-3-(8-fluoro-7-(3-hydroxynaphthalen-1-yl)-2-(((S)-1-methylpyrrolidin-2-yl)methoxy)quinazolin-4-yl)-3,8-diazabicyclo[3.2.1]octan-8-yl)-1-morpholinoethan-1-one]",100 to 1000,0.0001 to 10
"CN1CCCC(Oc2nc(N3[C@@H]4CC[C@H]3CNC4)c3ccc(-c4cc(O)cc5ccccc45)cc3n2)C1 (stereo partly drawn) [P-0239, 4-(4-((1R,5S)-3,8-diazabicyclo[3.2.1]octan-8-yl)-2-((1-methylpiperidin-3-yl)oxy)quinazolin-7-yl)naphthalen-2-ol]",0.0001 to 10,0.0001 to 10
"CN1CCC[C@H]1COc1nc(N2[C@@H]3CC[C@H]2CN(C(=O)c2c[nH]cn2)C3)c2ccc(-c3cc(O)cc4ccccc34)cc2n1 [P-0350, ((1R,5S)-8-(7-(3-hydroxynaphthalen-1-yl)-2-(((S)-1-methylpyrrolidin-2-yl)methoxy)quinazolin-4-yl)-3,8-diazabicyclo[3.2.1]octan-3-yl)(1H-imidazol-4-yl)methanone]",0.0001 to 10,10 to 100
"CN1CCc2cccc(Oc3nc(N4C[C@H]5CC[C@@H](C4)N5)c4ccc(-c5c(O)cccc5F)c(F)c4n3)c2C1 [P-0332, 2-(4-((1R,5S)-3,8-diazabicyclo[3.2.1]octan-3-yl)-8-fluoro-2-((2-methyl-1,2,3,4-tetrahydroisoquinolin-8-yl)oxy)quinazolin-7-yl)-3-fluorophenol]",10 to 100,10 to 100
